Source: patent publication US10736897B2, “Compounds and methods of use thereof for treatment of cancer” (Araxes Pharma LLC, priority 2017, dated 2020)

Target: T1, KRAS G12C 1-169, his-tagged protein, GDP-loaded (Homo sapiens, UniProt P01116, G12C)
T1 construct: KRAS G12C 1-169, his-tagged protein, GDP-loaded; His tag
Experiment: Biochemical assay: covalent modification of KRAS G12C measured by mass spectrometry (RapidFire/TOF or Q-Exactive)
Format: binding
Conditions: Modification Activity; modification percentage from deconvoluted MS peak intensities; compound concentration and incubation time for Table 2 not stated
Protocol: Test compounds are prepared as 10 mM stock solutions in DMSO (Fisher cat # BP-231-100). KRAS G12C 1-169, his-tagged protein, GDP-loaded is diluted to 2 μM or 0.5 μM in buffer (20 mM Hepes, 150 mM NaCl, 1 mM MgCl2). Compounds are tested for activity as follows:
Compounds are diluted to 50× final test concentration in DMSO in 96-well storage plates. Compound stock solutions are vortexed before use and observed carefully for any sign of precipitation. Dilutions are as follow: • For 100 μM final compound concentration, compounds are diluted to 5000 μM (5 μL 10 mM compound stock+5 μL DMSO and mixed well by pipetting. • For 30 μM final compound concentration, compounds are diluted to 1500 μM (3 μL 10 mM compound stock+17 μL DMSO) and mixed well by pipetting. • For 10 μM final compound concentration, compounds are diluted to 500 μM (2 μL 10 mM compound stock+38 μL DMSO) and mixed well by pipetting. 49 μL of the stock protein solution is added to each well of a 96-well PCR plate (Fisher cat #1423027). 1 μl of the diluted 50× compounds are added to appropriate wells in the PCR plate using 12-channel pipettor. Reactions are mixed carefully and thoroughly by pipetting up/down with a 200 μL multi-channel pipettor. The plate is sealed well with aluminum plate seal, and stored in drawer at room temperature for 10 minutes, 30 minutes, 2 hours or 24 hours. 5 μL of 2% formic acid (Fisher cat # A117) in de-ionized H2O is then added to each well followed by mixing with a pipette. The plate is then resealed with aluminum seal and stored on dry ice until analyzed as described below.
The above described assays are analyzed by mass spectrometry according to one of the following two procedures:
The MS instrument is set to positive polarity, 2 GHz resolution, and low mass (1700) mode and allowed to equilibrate for 30 minutes. The instrument is then calibrated, switched to acquisition mode and the appropriate method loaded.
After another 30 minute equilibration time, a blank batch (i.e., buffer) is run to ensure equipment is operating properly. The samples are thawed at 37° C. for 10 minutes, briefly centrifuged, and transfer to the bench top. Wells A1 and H12 are spiked with 1 μL 500 μM internal standard peptide, and the plates centrifuged at 2000×g for 5 minutes. The method is then run and masses of each individual well recorded.
The masses (for which integration data is desired) for each well are pasted into the platemap and exported from the analysis. Masses for the internal standards are exported as well. The data at 50 ppm is extracted for the +19 charge state, and identity of well A1 is assigned using the internal standard spike and integrated. Peak data is exported as a TOF list and the above steps are repeated individually, for the +20, 21, 22, 23, 24, and 25 charge states.
The masses and peak intensities of KRAS G12C protein species are measured using a Dionex RSLCnano system (Thermo Scientific) connected to a Q Exactive Plus mass spectrometer (Thermo Scientific).
[…] of sample is each loaded onto a Aeris™ 3.6 μm WIDEPORE C4 200 Å, LC Column 50×2.1 mm column maintained at 40° C. at a flow rate of 600 μL/min with […] (0.1% formic acid in acetonitrile). The liquid chromatography conditions are 20% solvent B for 1 minute, 20% to 60% solvent B for 1.5 minutes, 60% to 90% solvent for 0.5 minute, 90% solvent B for 0.2 minute, 90% to 20% solvent B for 0.2 minute, and then equilibrated for 1.6 minute before the following sample injection. The flow rate is maintained at 600 μL/min throughout the sample analysis.
The mass spectrometer is operated in profile mode at a resolution of 17500, 5 microscans, using 50 msec max injection time and an AGC target of 1×10^6, and a full mass range from 800-1850 m/z is recorded. The HCD trapping gas is optimized for maximum sensitivity for intact proteins. […]

Row | Compound | Binding %
1 | C=CC(=O)N1CCN(c2c(C#N)cnc3c(F)c(-c4c(C)ccc5cnn(C)c45)c(Cl)cc23)C[C@H]1C [Compound 24, 4-((R)-4-acryloyl-3-methylpiperazin-1-yl)-6-chloro-7-(1,6-dimethyl-1H-indazol-7-yl)-8-fluoroquinoline-3-carbonitrile] | +++ (+++ indicates binding activity greater than 85%)
2 | C=CC(=O)N1CCN(c2cc(C(F)(F)F)nc3c(F)c(-c4c(C)ccc5[nH]nc(C)c45)c(Cl)cc23)CC1 [Compound 25, 1-(4-(6-chloro-7-(3,5-dimethyl-1H-indazol-4-yl)-8-fluoro-2-(trifluoromethyl)quino-lin-4-yl)piperazin-1-yl)prop-2-en-1-one] | + (+ indicates binding activity greater than 0% and up to 50%)
3 | C=CC(=O)N1CCN(c2c(C#N)cnc3c(F)c(-c4c(C)ccc5cnn(C6CC6)c45)c(Cl)cc23)C[C@H]1C [Compound 26, 4-((R)-4-acryloyl-3-methylpiperazin-1-yl)-6-chloro-7-(1-cyclopropyl-6-methyl-1H-indazol-7-yl)-8-fluoroquinoline-3-carbonitrile] | +++ (+++ indicates binding activity greater than 85%)
4 | C=CC(=O)N1CCN(c2c(C#N)c(OCCCN(C)C)nc3c(F)c(-c4c(C)ccc5cnn(C)c45)c(Cl)cc23)CC1 [Compound 27, 4-(4-acryloylpiperazin-1-yl)-6-chloro-7-(1,6-dimethyl-1H-indazol-7-yl)-2-(3-(dimethylamino)pro-poxy)-8-fluoroquinoline-3-carbonitrile] | +++ (+++ indicates binding activity greater than 85%)
5 | C=CC(=O)N1CCN(c2cc(C#N)nc3c(F)c(-c4c(C)ccc5cnn(C)c45)c(Cl)cc23)CC1 [Compound 28, 4-(4-acryloylpiperazin-1-yl)-6-chloro-7-(1,6-dimethyl-1H-indazol-7-yl)-8-fluoroquinoline-2-carbonitrile] | +++ (+++ indicates binding activity greater than 85%)
6 | C=CC(=O)N1CCN(c2cc(C#N)nc3c(F)c(-c4c(C)ccc5[nH]nc(C)c45)c(Cl)cc23)CC1 [Compound 29, 4-(4-acryloylpiperazin-1-yl)-6-chloro-7-(3,5-dimethyl-1H-indazol-4-yl)-8-fluoroquinoline-2-carbontrile] | ++ (++ indicates binding activity from 50 to 85%)
7 | C=CC(=O)N1CCN(c2c(C#N)cnc3c(F)c(-c4c(C)ccc5[nH]nc(C)c45)c(Cl)cc23)CC1CC#N (centres unmarked) [Compound 30, 4-(4-acryloyl-3-(cyanomethyl)piperazin-1-yl)-6-chloro-7-(3,5-dimethyl-1H-indazol-4-yl)-8-fluoroquinoline-3-carbonitrile] | +++ (+++ indicates binding activity greater than 85%)
8 | C=CC(=O)N1CCN(c2ncnc3c(F)c(-c4c(C)ccc5[nH]nc(C)c45)c(Cl)cc23)CC1CC#N (centres unmarked) [Compound 31, 2-(1-acryloyl-4-(6-chloro-7-(3,5-dimethyl-1H-indazol-4-yl)-8-fluoroquinazolin-4-yl)piperazin-2-yl)acetonitrile] | +++ (+++ indicates binding activity greater than 85%)
